Where two headings read alike, the source gives them in different places.
What was measured:
Assay type in all cases: in vivo
Polygonum convolvulus = assay: Herbicidal action (field trials), Polygonum convolvulus; details: Fallopia convolvulus, field trial
Procedure: (§1) The seeds or rhizome pieces of typical harmful plants were planted and grown under natural field conditions. Before the harmful plants had emerged or after the harmful plants had emerged, they were treated, as a rule at the 2- to 8-leaf stage, with various dosages of the compositions according to the invention at a water application rate of 100 to 400 I/ha (converted).
(§2) After the treatment (approx. 4-6 weeks after application), the herbidical activity of the active ingredients or active ingredient mixtures was scored visually by comparing the treated plots with the untreated control plots. Damage and development of all aerial parts of the plants was recorded. Scoring was done on a percentage scale (100% action=all plants dead; 50% action=50% of the plants and green plant parts dead; 0% action=no discernible action=like control plot). The score figures of in each case 4 plots was averaged.
(§3) The results are shown in the tables which follow, the action when using active ingredients (A+B) and (C) independently being stated in brackets.

Maize = system: Maize
Procedure: as §1, §2, §3

Setaria spp. = assay: Herbicidal action (field trials), Setaria spp.; details: field trial
Procedure: as §1, §2, §3

Sorghum verticillata = assay: Herbicidal action (field trials), Sorghum verticillata; details: 60 g As/ha, field trial
Procedure: as §1, §2, §3

Q: `N#Cc1cc(Br)c(O)c(Br)c1` [bromoxynil (C33), 3,5-dibromo-4-hydroxybenzonitrile] was tested. Which inhibition at 240 g/ha (Polygonum convolvulus; 240 g As/ha) did it give?
A: 40%

Q: And the Maize % damage (Maize; 240 g As/ha, field trial (table part with Polygonum convolvulus))?
A: 2%

Q: `COc1c(Cl)ccc(Cl)c1C(=O)O` [dicamba (C20), 3,6-dichloro-o-anisic acid] was tested. Which inhibition at 60 g/ha (Polygonum convolvulus; 60 g As/ha) did it give?
A: 35%

Q: What about the Maize % damage (Maize; 60 g As/ha, field trial (table part with Polygonum convolvulus)) of the same molecule?
A: 0%

Q: Which results are given for `COc1cc(OC)nc(NC(=O)NS(=O)(=O)c2c(C(=O)O)c(Cl)nn2C)n1` [halosulfuron (C40), 3-chloro-5-(4,6-dimethoxypyrimidin-2-ylcarbamoylsulfamoyl)-1-methylpyrazole-4-carboxylic acid]?
A: inhibition at 36 g/ha (Setaria spp.; 36 g As/ha): 0%; Maize % damage (Maize; 36 g As/ha, field trial (table part with Setaria spp.)): 3%

Q: With `COc1cc(OC)nc(NC(=O)NS(=O)(=O)c2ncccc2C(=O)N(C)C)n1` [nicosulfuron (C15), 2-(4,6-dimethoxypyrimidin-2-yl)-3-(3-dimethylcarbamoyl-2-pyridylsulfonyl)urea] as the molecule, how does the inhibition at 60 g/ha (Sorghum verticillata) read?
A: 74%

Q: What about the Maize % damage (Maize; 60 g As/ha, field trial (table part with Sorghum verticillata)) of the same molecule?
A: 0%

Q: For `COc1nc(C)nc(NC(=O)NS(=O)(=O)c2ccccc2CCC(F)(F)F)n1` [prosulfuron (C42), 1-(4-methoxy-6-methyl-1,3,5-triazin-2-yl)-3-[2-(3,3,3-trifluoropropyl)phenylsulfonyl]urea], which inhibition at 40 g/ha (Setaria spp.; 40 g As/ha) is on record?
A: 15%

Q: What about the Maize % damage (Maize; 40 g As/ha, field trial (table part with Setaria spp.)) of the same molecule?
A: 7%

— patent US6750177B2, “Herbicide combination with acylated aminophenylsulfonylureas” (priority 2002, dated 2004)
